The structures appear in SMILES notation.

One may read the IC50 as the concentration that gives 50% inhibition.

The assay has as its target Leucine-rich repeat serine/threonine-protein kinase 2 (Homo sapiens, UniProt Q5S007, G2019S). Briefly: Inhibition of recombinant human GST tagged LRRK2 G2019S mutant catalytic domain (970 to 2527 residues) expressed in baculovirus expression system using fluorescein-labeled LRRKtide as substrate preincubated for 15 mins followed by substrate addition and measured after 90 mins by TR-FRET based Lanthascreen assay. Background: In TR-FRET formats the signal depends on donor and acceptor labels being close together.

Leucine-rich repeat serine/threonine-protein kinase 2, sequence (Q5S007 whole entry G2019S, the tested form may be a part): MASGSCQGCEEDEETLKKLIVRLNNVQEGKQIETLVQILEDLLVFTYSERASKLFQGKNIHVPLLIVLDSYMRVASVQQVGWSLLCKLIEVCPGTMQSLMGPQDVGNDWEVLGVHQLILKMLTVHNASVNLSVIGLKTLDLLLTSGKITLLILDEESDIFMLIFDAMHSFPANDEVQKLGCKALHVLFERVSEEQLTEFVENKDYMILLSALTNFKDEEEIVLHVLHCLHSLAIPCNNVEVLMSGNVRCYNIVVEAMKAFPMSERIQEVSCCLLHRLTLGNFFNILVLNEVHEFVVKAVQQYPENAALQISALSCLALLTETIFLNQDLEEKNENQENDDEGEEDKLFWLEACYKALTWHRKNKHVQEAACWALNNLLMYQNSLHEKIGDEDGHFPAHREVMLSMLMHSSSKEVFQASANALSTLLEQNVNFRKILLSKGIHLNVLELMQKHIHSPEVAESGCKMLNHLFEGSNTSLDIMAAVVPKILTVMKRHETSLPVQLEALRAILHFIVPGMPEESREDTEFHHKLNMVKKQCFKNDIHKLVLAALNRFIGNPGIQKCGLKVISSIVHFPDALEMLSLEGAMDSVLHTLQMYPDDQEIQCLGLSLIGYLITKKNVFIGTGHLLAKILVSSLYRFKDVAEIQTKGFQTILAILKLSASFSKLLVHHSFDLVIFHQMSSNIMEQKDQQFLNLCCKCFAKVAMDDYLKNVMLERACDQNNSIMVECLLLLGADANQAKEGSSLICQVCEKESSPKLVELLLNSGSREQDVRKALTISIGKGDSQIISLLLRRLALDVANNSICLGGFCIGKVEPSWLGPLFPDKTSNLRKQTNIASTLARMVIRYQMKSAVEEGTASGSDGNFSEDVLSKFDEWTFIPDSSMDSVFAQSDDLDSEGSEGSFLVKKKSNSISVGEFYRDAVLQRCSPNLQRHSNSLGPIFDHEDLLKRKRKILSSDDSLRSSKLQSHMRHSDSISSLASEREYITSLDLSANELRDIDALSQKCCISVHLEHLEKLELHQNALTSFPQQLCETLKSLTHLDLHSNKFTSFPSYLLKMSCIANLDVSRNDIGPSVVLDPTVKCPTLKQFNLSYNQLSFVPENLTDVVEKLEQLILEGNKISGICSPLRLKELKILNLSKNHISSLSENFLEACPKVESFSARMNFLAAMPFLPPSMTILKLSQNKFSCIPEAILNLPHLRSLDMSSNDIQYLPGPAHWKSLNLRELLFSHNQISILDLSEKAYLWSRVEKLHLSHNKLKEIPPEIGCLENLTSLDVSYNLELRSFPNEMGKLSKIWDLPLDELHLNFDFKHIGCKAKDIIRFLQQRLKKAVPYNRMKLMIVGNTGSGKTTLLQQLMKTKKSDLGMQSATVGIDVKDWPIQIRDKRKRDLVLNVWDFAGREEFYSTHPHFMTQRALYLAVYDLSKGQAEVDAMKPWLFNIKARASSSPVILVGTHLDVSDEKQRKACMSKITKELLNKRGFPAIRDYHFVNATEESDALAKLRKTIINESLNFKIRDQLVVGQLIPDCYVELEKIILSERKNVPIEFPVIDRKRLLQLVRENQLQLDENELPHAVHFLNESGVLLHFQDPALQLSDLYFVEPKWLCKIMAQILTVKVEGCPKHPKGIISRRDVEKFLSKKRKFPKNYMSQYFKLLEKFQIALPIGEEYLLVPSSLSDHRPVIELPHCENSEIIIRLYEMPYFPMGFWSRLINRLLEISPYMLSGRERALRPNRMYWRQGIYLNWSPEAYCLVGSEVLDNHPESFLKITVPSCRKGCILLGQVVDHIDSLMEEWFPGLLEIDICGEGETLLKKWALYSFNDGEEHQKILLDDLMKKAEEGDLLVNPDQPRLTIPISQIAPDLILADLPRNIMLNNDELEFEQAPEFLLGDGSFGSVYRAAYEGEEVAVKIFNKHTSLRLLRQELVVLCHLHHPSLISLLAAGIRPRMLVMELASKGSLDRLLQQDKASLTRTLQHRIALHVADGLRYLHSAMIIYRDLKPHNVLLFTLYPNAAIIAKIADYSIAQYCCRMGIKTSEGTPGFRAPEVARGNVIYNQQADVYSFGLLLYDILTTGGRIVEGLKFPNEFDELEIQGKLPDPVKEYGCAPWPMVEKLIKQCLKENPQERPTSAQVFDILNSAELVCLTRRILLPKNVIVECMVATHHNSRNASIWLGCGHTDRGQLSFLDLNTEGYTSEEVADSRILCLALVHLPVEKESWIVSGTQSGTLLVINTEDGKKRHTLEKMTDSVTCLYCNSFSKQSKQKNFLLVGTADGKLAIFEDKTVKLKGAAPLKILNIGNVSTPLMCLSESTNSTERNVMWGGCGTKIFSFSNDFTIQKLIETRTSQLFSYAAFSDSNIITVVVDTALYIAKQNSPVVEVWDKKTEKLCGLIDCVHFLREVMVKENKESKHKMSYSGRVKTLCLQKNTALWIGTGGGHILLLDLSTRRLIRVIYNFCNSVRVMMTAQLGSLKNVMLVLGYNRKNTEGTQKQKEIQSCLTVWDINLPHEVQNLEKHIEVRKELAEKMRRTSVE

Take `Cn1cc(-n2ncc3cc(Cl)c(C4CCN(C5(C)CCOC5)CC4)cc32)cn1` (stereo not drawn): the IC50 is less than 625 pM.

Consider `CC1(N2CCC(c3cc4c(cnn4-c4cnn(C56CC(C#N)(C5)C6)c4)cc3Cl)CC2)COC1`, for which the IC50 is less than 625 pM.

As for `CC1(N2CCC(c3cc4c(cnn4-c4cnn(C56CC(C5)C6)c4)cc3Cl)CC2)COC1`, the IC50 turned out to be 710 pM.

The record behind these values is ChEMBL document CHEMBL4706723, “Novel N-Heteroaryl Indazole Derivatives as LRRK2 Inhibitors for Treating Parkinson's Disease” (ACS Med Chem Lett, 2021).
